T1: ADAMTS5 (Homo sapiens, UniProt Q9UNA0)
T1 construct: purchased R&D systems
T1 sequence (Q9UNA0 262-930): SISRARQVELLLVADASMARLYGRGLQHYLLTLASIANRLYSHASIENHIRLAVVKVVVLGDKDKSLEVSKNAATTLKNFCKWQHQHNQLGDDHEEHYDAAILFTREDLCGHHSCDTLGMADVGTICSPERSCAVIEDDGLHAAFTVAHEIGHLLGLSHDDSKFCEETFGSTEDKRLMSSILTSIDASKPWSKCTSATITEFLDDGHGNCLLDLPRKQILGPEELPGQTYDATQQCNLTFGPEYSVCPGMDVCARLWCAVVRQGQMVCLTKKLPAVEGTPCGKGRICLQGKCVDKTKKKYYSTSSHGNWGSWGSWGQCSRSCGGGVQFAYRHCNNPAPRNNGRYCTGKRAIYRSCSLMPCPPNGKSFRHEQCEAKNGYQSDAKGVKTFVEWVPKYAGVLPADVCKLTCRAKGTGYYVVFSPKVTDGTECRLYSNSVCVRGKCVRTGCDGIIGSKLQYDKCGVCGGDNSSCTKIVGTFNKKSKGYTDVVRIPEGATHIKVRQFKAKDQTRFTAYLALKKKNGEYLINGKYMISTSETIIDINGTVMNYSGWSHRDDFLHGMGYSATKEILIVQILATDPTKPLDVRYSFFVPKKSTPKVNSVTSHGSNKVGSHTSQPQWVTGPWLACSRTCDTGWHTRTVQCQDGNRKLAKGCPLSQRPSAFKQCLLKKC

B1: 1 (nucleic acid)
chain: GGGUACGACCGUCGUACGAUUGGGGCCUCCACAGCUGCUCAGCUUGGACUAAACCAAUAAGAGACUAACGCCUAGCGUAC
modifications: 2'-fluoro at CU, RNA at AG, backbone not given here
B2: 2 (nucleic acid)
chain: GGGUACGACCGUCGUACGAUUGGGCCUCCACAGCUGCUCAGCUUGGACUAAACCAAUAAGAGACUAACGCCUAGCGUAC
modifications: 2'-fluoro at CU, RNA at AG, backbone not given here

Molecular target: T1, ADAMTS5
Experiment: ADAMTS5 enzyme inhibition, aggrecan G1-IGD-G2 cleavage, SDS-PAGE detection (evaluation method 1)
Assay type: biochemical
Conditions: Table 2; mean of four measurements; 5 nM ADAMTS5, 50 μg/mL substrate; read-out: IC50, inhibitory activity against ADAMTS5
Experimental: Whether an aptamer having the nucleotide sequence shown in SEQ ID NO: 1 inhibits the enzyme activity of ADAMTS5 was evaluated by the following method. As a substrate of ADAMTS5, the G1-IGD-G2 domain of aggrecan (manufactured by R&D systems) was used. ADAMTS5 specifically cleaves in between the 392nd glutamic acid and the 393rd alanine in the G1-IGD-G2 domain and produces two fragments. These fragments have faster electrophoretic mobility than uncleaved G1-IGD-G2. Thus, the enzyme activity of ADAMTS5 can be measured by quantifying the band intensity of G1-IGD-G2 by SDS-PAGE electrophoresis. The assay was performed in a solution A buffer with a reaction mixture volume of 10 μL. First, a mixture (10 μL) of a nucleic acid and ADAMTS5 was prepared and incubated at 25° C. for 15 min. To a substrate solution (5 μL) diluted with solution A was added a mixture (5 μL) of the nucleic acid and ADAMTS5 to start the enzyme reaction. The final concentration of ADAMTS5 in the reaction solution was 5 nM, and the final substrate concentration was 50 μg/mL. The reaction solution was incubated at 37° C. for 2 hr, 2 μL of solution D was added, and the mixture was heated at 95° C. for 2 min to stop the enzyme reaction of ADAMTS5. Solution D contains 0.25 M tris (pH 6.8), 10% SDS, 50% glycerol, 0.25% bromo phenolblue, and 20% 2-mercaptoethanol. The heat-treated reaction solution was electrophoresed by 7.5% SDS-PAGE and stained with SYPRO Orange (manufactured by Sigma-Aldrich). The staining was performed according to the manual of Sigma-Aldrich and detected using STORM840 manufactured by GE Healthcare. For analytical curves, uncleaved substrates 1000 ng, 400 ng, 160 ng, 64 ng, 25.6 ng, 10.24 ng, and 4.1 ng were electrophoresed, and staining and detection were performed in the same manner. The amount of uncleaved substrate in each reaction solution was quantified from the band intensity and the standard curve. The substrate cleavage efficiency of ADAMTS5 under these reaction conditions was 80-100%. The inhibition rate of the test substance was calculated using the following equation. inhibition rate (%)=(Sapt−SE)/(S0−SE)×100 wherein Sapt is the amount of an uncleaved substrate with the addition of a test substance, SE is the residual amount of an uncleaved substrate with the addition of ADAMTS5, and S0 is the residual amount of an uncleaved substrate without the addition of ADAMTS5.
The concentration of an inhibitor necessary for inhibiting 50% of the enzyme activity (IC50) was determined. IC50 is a mean of four measurements.

Question: For B1, which IC50 is on record?
Answer: 16.8 ± 2.8 nM

Molecular target: T1, ADAMTS5
Experiment: binding activity to ADAMTS5 by surface plasmon resonance (Biacore T100)
Conditions: Table 1; 0.1 μM ADAMTS5 analyte, aptamer immobilized on SA chip
Experimental: The binding activity of aptamers having the nucleotide sequences shown in SEQ ID NOs: 1 and 2 to ADAMTS5 was evaluated by the surface plasmon resonance method. Biacore T100 manufactured by GE Healthcare was used for the measurement. The SA chip was used as the sensor chip, which had streptavidin immobilized thereon. About 800 RU of a 16-nucleotide Poly dT with biotin at the 5′-terminal was bound on the chip. […] ADAMTS5 for analyte was prepared at 0.1 μM, and injected at a flow rate of 30 μL/min for 60 sec. As the running buffer, solution C was used. The solution C is a mixed solution of 300 mM sodium chloride, 5.4 mM potassium chloride, 1.8 mM calcium chloride, 0.8 mM magnesium chloride, 20 mM tris (pH 7.6), and 0.05% Tween20.
SEQ ID NO: 2 has a sequence with one base deletion from the continuous 4 G bases in the consensus sequence, and it was shown from the measurement results of the binding activity that the continuous 4 G bases in the consensus sequence are important for the activity of aptamers. Sensorgram showing the binding of an aptamer having the nucleotide sequence shown in SEQ ID NO: 1 to ADAMTS5 is presented in FIG. 2. In Table 1, “++” indicates those with the proportion of ADAMTS5 binding amount (RU value) to the amount of aptamer immobilized on the SA chip (RU value) of not less than 40%, “+” indicates those with the proportion of not less than 10% and less than 40%, and “−” indicates those with the proportion of less than 10%.
The binding activity and enzyme inhibitory activity of aptamers having nucleotide sequences shown in SEQ ID NOs: 16-25 to ADAMTS5 were measured. The binding activity was evaluated by the surface plasmon resonance method. For the measurement, a method similar to that in Example 1 was used. The enzyme inhibitory activity was measured by a method similar to that in Example 1. […] The negative control nucleic acid refers to the nucleic acid pool used in the first round of the SELEX method. The “++” indicates those with the proportion of ADAMTS5 binding amount (RU value) to the amount of aptamer immobilized on the SA chip (RU value) of not less than 40%, and “+” indicates those with the proportion of less than 40%. […] “n.d.” means not determined.
The binding activity of the nucleic acids shown in SEQ ID NOs: 30-45 to ADAMTS5 was measured. The binding activity was evaluated by the surface plasmon resonance method. In the Table, “++” indicates those with the proportion of ADAMTS5 binding amount (RU value) to the amount of aptamer immobilized on the SA chip (RU value) of not less than 40%, “+” indicates those with the proportion of not less than 10% and less than 40%, and “−” indicates those with the proportion of less than 10%.

Question: Which “binding activity by Biacore” value does the source give for B1 here?
Answer: ++ (proportion of ADAMTS5 binding amount (RU value) to the amount of aptamer immobilized on the SA chip (RU value) of not less than 40%)

Question: How did the “binding activity by Biacore” value turn out when B2 was run?
Answer: − (proportion of less than 10%)

Same assay, conditions: Table 10

Question: How did the binding activity turn out when “33 (GGGUAUUGGGGCCUCCACAGCCGAGGCUUGGACUAAACCAAUCUCGA; aptamer; 2'-fluoro at CU, RNA at AG, backbone not given here) [compound 33]” was run?
Answer: ++ (proportion of ADAMTS5 binding amount (RU value) to the amount of aptamer immobilized on the SA chip (RU value) of not less than 40%)

Question: Which binding activity does the source give for “34 (GGGUAUUGGGGCCUCCACAGAAAAAACUUGGACUAAACCAACUCGA; aptamer; 2'-fluoro at CU, RNA at AG, backbone not given here) [compound 34]” here?
Answer: ++ (proportion of ADAMTS5 binding amount (RU value) to the amount of aptamer immobilized on the SA chip (RU value) of not less than 40%)

Question: For “35 (GGGUAUUGGGGCCUCCACAGUAAGCACUUGGACUAAACCAGCUCGA; aptamer; 2'-fluoro at CU, RNA at AG, backbone not given here) [compound 35]”, which binding activity is on record?
Answer: ++ (proportion of ADAMTS5 binding amount (RU value) to the amount of aptamer immobilized on the SA chip (RU value) of not less than 40%)

Question: With “36 (GGGUAUUGGGGCCUCCACAGUUUAAACUUGGACUAAACCAACUCGA; aptamer; 2'-fluoro at CU, RNA at AG, backbone not given here) [compound 36]” as the molecule, how does the binding activity read?
Answer: ++ (proportion of ADAMTS5 binding amount (RU value) to the amount of aptamer immobilized on the SA chip (RU value) of not less than 40%)

Question: How did the binding activity turn out when “37 (GGGUAUUGGGGCCUCCACAGUAAAUUCUUGGACUAAACCAACUCGA; aptamer; 2'-fluoro at CU, RNA at AG, backbone not given here) [compound 37]” was run?
Answer: ++ (proportion of ADAMTS5 binding amount (RU value) to the amount of aptamer immobilized on the SA chip (RU value) of not less than 40%)

Question: Which binding activity does the source give for “38 (GGGUAUUGGGGCCUCCACGCUAGAAGGCUGGACUAAACCAACUCGA; aptamer; 2'-fluoro at CU, RNA at AG, backbone not given here) [compound 38]” here?
Answer: ++ (proportion of ADAMTS5 binding amount (RU value) to the amount of aptamer immobilized on the SA chip (RU value) of not less than 40%)

Question: With “39 (GGGUAUUGGGGCCUCCACGUAACUAAACUGGACUAAACCAACUCGA; aptamer; 2'-fluoro at CU, RNA at AG, backbone not given here) [compound 39]” as the molecule, how does the binding activity read?
Answer: ++ (proportion of ADAMTS5 binding amount (RU value) to the amount of aptamer immobilized on the SA chip (RU value) of not less than 40%)

Question: Which binding activity does the source give for “40 (GGGUAUUGGGGCCUCCACGCAAUGGUGCUGGACUAAACCAACUCGA; aptamer; 2'-fluoro at CU, RNA at AG, backbone not given here) [compound 40]” here?
Answer: ++ (proportion of ADAMTS5 binding amount (RU value) to the amount of aptamer immobilized on the SA chip (RU value) of not less than 40%)

Question: For “41 (GGGUAUUGGGGCCUCCACAUGGAUACAUUGGACUAAACCAACUCGA; aptamer; 2'-fluoro at CU, RNA at AG, backbone not given here) [compound 41]”, which binding activity is on record?
Answer: ++ (proportion of ADAMTS5 binding amount (RU value) to the amount of aptamer immobilized on the SA chip (RU value) of not less than 40%)

Question: With “42 (GGGUAUUGGGGCCUCCACAGAUAAUUCUUGGACUAAACCAACUCGA; aptamer; 2'-fluoro at CU, RNA at AG, backbone not given here) [compound 42]” as the molecule, how does the binding activity read?
Answer: ++ (proportion of ADAMTS5 binding amount (RU value) to the amount of aptamer immobilized on the SA chip (RU value) of not less than 40%)

Question: “43 (GGGUAUUGGGGCCUCCACAGAAAAUUCUUGGACUAAACCAACUCGA; aptamer; 2'-fluoro at CU, RNA at AG, backbone not given here) [compound 43]” was tested. Which binding activity did it give?
Answer: ++ (proportion of ADAMTS5 binding amount (RU value) to the amount of aptamer immobilized on the SA chip (RU value) of not less than 40%)

Question: “44 (GGGUAUUGGGGCCUCCACAGAACUUUCUUGGACUAAACCAACUCGA; aptamer; 2'-fluoro at CU, RNA at AG, backbone not given here) [compound 44]” was tested. Which binding activity did it give?
Answer: ++ (proportion of ADAMTS5 binding amount (RU value) to the amount of aptamer immobilized on the SA chip (RU value) of not less than 40%)

Question: For “45 (GGGUAUUGGGGCCUCCACAGAAAAGUCUUGGACUAAACCAACUCGA; aptamer; 2'-fluoro at CU, RNA at AG, backbone not given here) [compound 45]”, which binding activity is on record?
Answer: ++ (proportion of ADAMTS5 binding amount (RU value) to the amount of aptamer immobilized on the SA chip (RU value) of not less than 40%)

Same assay, conditions: surface plasmon resonance

Question: Which “binding to ADAMTS5 (in words)” value does the source give for B1 here?
Answer: binds to ADAMTS5

Question: For B2, which “binding to ADAMTS5 (in words)” value is on record?
Answer: did not bind to ADAMTS5

Source: patent publication US11473089B2, “Aptamer for ADAMTS5 and use for aptamer for ADAMTS5” (RIBOMIC INC., priority 2017, dated 2022)
